Test results reported in PubChem BioAssay (NCI).
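48-hour exposure; five concentrations; linearly interpolated endpoints. The concentration for 50% growth inhibition is given as GI50. TGI marks complete inhibition of growth.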

How the values were obtained:
Assay in all cases: NCI-60 cell line screen, 48 h
[1] = tested on: UACC-62 melanoma
[2] = tested on: U251 CNS
[3] = tested on: ACHN renal
[4] = tested on: TK-10 renal
[5] = tested on: T-47D breast
[6] = tested on: SF-268 CNS
[7] = tested on: K-562 leukemia
[8] = tested on: NCI-H226 lung
[9] = tested on: LOX IMVI melanoma
[10] = tested on: M14 melanoma

Row | SMILES | TGI [1] | TGI [2] | TGI [3] | TGI [4] | TGI [5] | TGI [6] | TGI [7] | TGI [8] | TGI [9] | TGI [10] | GI50 [1] | GI50 [2] | GI50 [3] | GI50 [4] | GI50 [5] | GI50 [6] | GI50 [7] | GI50 [8] | GI50 [9] | GI50 [10]
1 | CC(C(=O)O)/C(=C\c1ccc2c(c1)OCO2)C(=O)O (stereo not drawn) | > 100 µM | > 100 µM | > 100 µM | > 100 µM | > 100 µM | > 100 µM | > 100 µM | > 100 µM | > 100 µM | > 100 µM |  |  |  |  |  |  |  |  |  | 
2 | O=C1CCC(N2Cc3c(C#CCCCNC(=O)c4cc5c(o4)C(=O)c4ccccc4C5=O)cccc3C2=O)C(=O)N1 (stereo not drawn) | 3.65 µM | 8.07 µM | 26 µM | 50.2 µM | 11.9 µM | 11.2 µM | 16.6 µM | 30.2 µM | 5.49 µM | 3.59 µM | 1870 nM | 2.87 µM | 12.6 µM | 33.1 µM | 3.16 µM | 3.06 µM | 3.11 µM | 12.5 µM | 2.14 µM | 1.85 µM
3 | Cc1cc(C)c2nc3nc(C)cc(C)c3c(N)c2c1 | 18.9 µM | 26.1 µM | 49.4 µM | 19.1 µM | 34.2 µM | 21.6 µM | 15.9 µM | 24.7 µM | 14.9 µM | 16.1 µM | 4830 nM | 4.3 µM | 3.29 µM | 3.34 µM | 5.89 µM | 5.38 µM | 3.45 µM | 5.4 µM | 3.51 µM | 4.53 µM
4 | Brc1ccccc1C=NC12CC3CC(CC(C3)C1)C2 | > 100 µM | > 100 µM | > 100 µM | > 100 µM | > 100 µM | > 100 µM | > 100 µM | > 100 µM | > 100 µM | > 100 µM |  |  |  |  |  |  |  |  |  | 
5 | Cc1sc(NC2=NC(=O)/C(=C\c3ccccc3)S2)nc1-c1nc(NC2=NC(=O)/C(=C\c3ccccc3)S2)sc1C | 24 µM | 22.9 µM | > 32.6 µM | 22.7 µM | > 50 µM | 49.4 µM | > 35 µM | > 32.8 µM | 35.3 µM | 23.6 µM | 7450 nM | 9.27 µM | 12.4 µM | 7.19 µM | 28.2 µM | 14.7 µM | 13.2 µM | 12.4 µM | 11.2 µM | 9.51 µM
6 | O=C(Cc1ccccc1)NC(c1ccc(Cl)cc1)c1c(O)ccc2ccccc12 (stereo not drawn) | 6.07 µM | 6.94 µM | 6.9 µM | 13.2 µM | 13.8 µM | 16 µM | 26.3 µM | 12 µM | 9.71 µM |  | 2250 nM | 2.55 µM | 2.55 µM | 4.17 µM | 3.65 µM | 4.25 µM | 3.1 µM | 3.15 µM | 3.11 µM | 
7 | O=C1CC[C@H](c2ccc(O)c3c2C(=O)[C@@H]2O[C@@H]2C3=O)c2cccc(O)c21 | 3.73 µM | 25.2 µM | 4.16 µM | 2.93 µM | 3.81 µM | 6.17 µM | 10.4 µM | 12.4 µM | 3.86 µM | 4.09 µM | 1750 nM | 11.6 µM | 1.46 µM | 1.49 µM | 1.27 µM | 2.32 µM | 2.36 µM | 3.21 µM | 0.976 µM | 1.9 µM
